In patent US20200138921A1, “METHODS OF PREVENTING AND TREATING DISEASES CHARACTERIZED BY SYNAPTIC DYSFUNCTION AND NEURODEGENERATION INCLUDING ALZHEIMER'S DISEASE” (The Trustees of Columbia University in the City of New York, priority 2017, published 2020):

Key:
[1] = system: Ube3A; experiment: Ube3A protein in hippocampus of J20 AD mice; type: in vivo; conditions: single bilateral TOP injection 275 μg at 9-10 months, measured at 11-12 months
Source text: The J20 transgenic mouse line also used in the studies expresses a mutated human APP (hAPP: K670N/M671L and V717F) under the control of the platelet-derived growth factor promoter (Mucke et al. 2000). These mice have deficits in learning and memory, inhibition of long-term potentiation, loss of dendritic spines, profuse amyloid plaques, and increased phosphorylation of the tau protein. These mice also have increased RhoA-GTP activity and progressive decrease in spinal density when treated with oligomeric Aβ. See Pozueta et al. 2013.
(§1) Whole frozen mouse hippocampi, human brain specimens, and cultured cells were homogenized in RIPA buffer (ThermoFisher) supplemented with protease and phosphatase inhibitor cocktail (ThermoFisher), using a Teflon dounce homogenizer and centrifuged at 14,000 rpm for 10 minutes at 4° C. Supernatants were collected, normalized by BCA assay (ThermoFisher), and prepared for loading using sample buffer (SB) 4× (ThermoFisher) and dithiothreitol (DTT) 10× (ThermoFisher).
(§2) Controls were wild-type mice and J20 mice injected with PBS.

[2] = system: J20 mice; experiment: Dendritic spine density in hippocampus of J20 mice; type: in vivo; conditions: single TOP injection 275 μg
Protocol: The protocol for diolistic labeling of neurons was adapted from Gan et al. 2000 and Gan et al. 2009. Briefly, 100 mg of tungsten particles (1.1 μm diameter; Bio-Rad) were thoroughly precipitated with 5.0 mg of lipophilic dye (DiI; ThermoFisher) and dissolved in 100 μl of methylene chloride. Dye-coated particles were shot 2-3 times into the cells using the Helios gene gun system (Bio-Rad) and left in 0.1 M PBS overnight to allow dye diffusion along neuronal processes. Cells were post-fixed with 4% paraformaldehyde (Pierce) for 1 hour to preserve staining, then mounted onto glass slides using Gel Mount (Biomeda) and stored at 4° C. in the dark.
Labeled neurons were imaged using the Laser Scanning Microscope (LSM) 510 Meta confocal microscope (Zeiss), equipped with 40×1.3 NA and 100×1.4 NA oil-immersion objectives. The NIH Image software program ImageJ was used the quantify diolistic-labeled cultured neurons. An average of 12 compressed images (20 μm thick) consisting of pyramidal neurons were quantified for each treatment. Spines were counted with NeuronStudio software in a blinded manner and spine density was represented in number of spine per μm dendritic length. Statistical analysis was performed using the statistics package GraphPad Prism.
as §2

[3] = usual marketed dosages, daily for five days or weekly; cited from earlier work
[4] = system: Ube3A; experiment: Immunoprecipitation of HA-Ube3A and phospho-tyrosine immunoblot in B35 cells; type: cell-based, rat; conditions: B35 cells overexpressing HA-tagged Ube3A, as early as 1 hour
Protocol: Hippocampal neuron cultures from both male and female rat embryos (E17-18) were prepared following a slightly modified version of the method of Brewer et al. 1996. Hippocampal neurons were kept in culture at 37° C. with 5% CO2 in Neurobasal medium (ThermoFisher) with B27 (ThermoFisher) supplement and Glutamax (ThermoFisher) and plated at a density of 2.5×10^5 cell/ml on dishes coated with poly-D-lysine (ThermoFisher). For the experiments, neurons were used after 14-21 days in vitro (DIV). Rat neuroblastoma B35 cells were cultured and maintained in DMEM (ThermoFisher) supplemented with 10% fetal bovine serum (FBS; Invitrogen) and Glutamax (ThermoFisher).
Cells were collected and homogenized with IP lysis buffer (ThermoFisher) supplemented with Halt protease and phosphatase inhibitor (ThermoFisher). Cell extracts were incubated overnight at 4° C. with 1.0 μg HA antibody (Cell Signaling) or mouse IgG (Cell Signaling) as a negative control Immunocomplexes were incubated with magnetic beads covalently coated with protein G (Invitrogen) on a rotator for 2 hours, at 4° C. The beads were then pelleted with a magnet and washed 3 times with 1× cell lysis buffer (Cell Signaling) supplemented with complete mini protease inhibitor mixture (Roche). The immunocomplexes were resuspended in cell lysis buffer, LDS-sample buffer (Invitrogen), […] dithiothreitol (DTT), and analyzed by Western blotting. […]

[5] = system: Ube3A; experiment: Ube3A protein degradation in B35 cells (cycloheximide chase); type: cell-based, rat; conditions: CHX and oAβ for 4, 8 and 16 hours
Protocol: FIG. 5A is a graph showing the quantification of Western blots of the levels of Ube3A and GAPDH (as house-keeping protein) of B35 cells treated with cycloheximide (CHX) or CHX and oAβ for 4, 8 and 16 hours. […] Graphs represent mean values and standard deviation. Significance determined by one-way ANOVA followed by Tukey Post Hoc multiple comparisons.

[6] = system: Ube3A; experiment: Ube3A levels in astrocyte-enriched cultures; type: cell-based, rat; conditions: astrocyte-enriched cultures treated with oAβ (results not shown)
Protocol: Since Ube3A is also expressed in astrocytes (Grier et al. 2015), it was determined whether Ube3A levels were also altered in these cells.

[7] = system: p53; experiment: Western blot of p53 in hippocampal neurons; type: cell-based, rat; conditions: Aβ for 8-10 hours
Protocol: as §1
As observed in the Tg2576 mice hippocampi, the levels of Ube3A inversely correlated with the levels of Arc and Ephexin-5. To determine whether this correlation was also observed in hippocampal neurons, the cells were treated with Aβ for 8-10 hours, and whole cell lysates were collected for Western blot analysis.

[8] = system: GluR1; experiment: Surface GluR1 in hippocampal neurons (biotinylated surface Western blot, immunostaining); type: cell-based, rat; conditions: hippocampal neurons treated with Aβ
Protocol: Cells were fixed in PFA (4%) in […] PBS for 10 minutes at room temperature. Permeabilization was performed using 0.4% Triton X-100 (Sigma) in PBS for 20 minutes. Then, cells were incubated in anti-GluR1 primary antibody (Millipore) in Superblock (Thermo Scientific) with 0.1% Triton X-100 for 12 hours at 4° C. Cells were washed with PBS, and then incubated in goat anti-mouse Alexa 568 in Superblock with 0.1% Triton X-100 for 1 hour at RT. Then cells were mounted onto glass slides using Gel Mount (Biomeda).
The consequences of upregulation of Arc and Ephexin-5 are well characterized. In the case of Arc, one its key function is to regulate postsynaptic trafficking of AMPA receptor subunits, and to regulate spine morphology and network stability (Korb and Finkbeiner 2011).

[9] = system: Lfc; experiment: Levels or activities of Lfc in hippocampal neurons; type: cell-based, rat; conditions: hippocampal neurons treated with oAβ (results not shown)

Compound | levels of Ube3A in the hippocampus [1] | dendritic spine density [2] | hematologic toxicity [3] | nonhematologic toxicity [3] | phospho-tyrosinated Ube3A (pTyr-Ube3A) [4] | degradation rate of the Ube3A protein [5] | Ube3A levels [6] | levels of p53 [7] | levels of surface-expressed GluR1 subunit [8] | levels or activities of Lfc [9]
CC[C@@]1(O)C(=O)OCc2c1cc1n(c2=O)Cc2cc3c(CN(C)C)c(O)ccc3nc2-1 [TOP, topotecan] | increased | significant increase | reversible manageable | mild |  |  |  |  |  | 
oAβ: synthetic soluble oligomeric Aβ1-42 |  |  |  |  | significant increase | significantly increased | modest, but significant increase | did not show any altered levels | significant decrease | no observation of any differences
